Assay results: BindingDB's records for doi:10.1002/cbic.201600673 (Université de Nantes, 2017)

Experiments:
Experiment in all cases: Fluorescence Polarization Assay
Galectin-1 [C3S] = Galectin-1 [C3S] (Human, UniProt P09382, C3S)
Galectin-3 = Galectin-3 (Homo sapiens, UniProt P17931)
Galectin-7 = Galectin-7 (Homo sapiens, UniProt P47929)
Chain of Galectin-7 (P47929 whole entry): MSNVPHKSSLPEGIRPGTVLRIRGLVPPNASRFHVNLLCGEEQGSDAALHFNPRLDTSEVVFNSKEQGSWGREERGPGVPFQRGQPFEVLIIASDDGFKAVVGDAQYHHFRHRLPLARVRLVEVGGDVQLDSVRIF

Chain of Galectin-3 (P17931 whole entry): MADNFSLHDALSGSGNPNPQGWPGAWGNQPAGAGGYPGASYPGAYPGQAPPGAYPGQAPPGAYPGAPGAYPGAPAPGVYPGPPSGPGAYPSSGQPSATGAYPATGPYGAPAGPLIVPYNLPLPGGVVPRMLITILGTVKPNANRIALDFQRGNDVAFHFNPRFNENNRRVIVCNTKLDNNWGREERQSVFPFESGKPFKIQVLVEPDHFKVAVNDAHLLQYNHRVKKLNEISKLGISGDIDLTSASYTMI
Chain of Galectin-1 [C3S] (P09382 2-135 C3S limits assumed): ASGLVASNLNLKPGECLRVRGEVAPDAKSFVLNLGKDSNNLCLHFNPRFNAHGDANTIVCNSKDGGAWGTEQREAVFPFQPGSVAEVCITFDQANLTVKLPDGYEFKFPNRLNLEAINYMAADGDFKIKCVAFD

Row | Kd (Galectin-1 [C3S]; 4 °C) [µM] | Kd (Galectin-3; 4 °C) [µM] | Kd (Galectin-3; 25 °C) [µM] | Kd (Galectin-7; 4 °C) [µM] | Kd (Galectin-1 [C3S]; 25 °C) [µM] | Kd (Galectin-7; 25 °C) [µM] | Compound
1 | 27 | 0.59 | 2.99 | 90 | – | – | COc1cccc(C(=O)CC2C(O)[C@H](O[C@@H]3OC(CO)[C@H](O)C(OCc4ccc5ccccc5c4)C3O)C(CO)O[C@H]2OCCN=[N+]=[N-])c1 (stereo partly drawn) [[3-O-(2-naphthyl)methyl-β-D-galactopyranosyl]-(1-4)-2-deoxy-2-(3-methoxybenzamido)-β-D-glucopyranoside (11)]
2 | 16 | 0.014 | 0.082 | 21 | 43 | 129 | COc1cccc(C(=O)NC2C(O)[C@H](O[C@@H]3OC(CO)[C@H](O)C(OCc4ccc5ccccc5c4)C3O)C(CO)O[C@H]2OCCNC(=O)CCCCCN2C(=O)C=CC2=O)c1 (stereo partly drawn) [2-[6-Maleimide)caproyl]ethyl [3-O-(2-naphthyl)methyl-β-D-galactopyranosyl]-(1-4)-2-deoxy-2-(3-methoxybenzamido)-β-D-glucopyranoside (13)]
3 | – | – | – | 32 | – | – | OCC1O[C@@H](S[C@@H]2OC(CO)[C@H](O)C(n3cc(-c4cccc(F)c4)nn3)C2O)C(O)C(n2cc(-c3cccc(F)c3)nn2)[C@H]1O (stereo not given in full) [TD139]
4 | 23 | 0.66 | 3.27 | 86 | – | – | COc1cccc(COC2C(O)[C@H](O[C@@H]3C(CO)O[C@@H](N=[N+]=[N-])C(NC(=O)c4cccc(OC)c4)C3O)OC(CO)[C@@H]2O)c1 (stereo partly drawn) [4-O-[3-O-(3-methoxybenzyl)-β-D-galactopyranosyl)]-1-azido-1,2-dideoxy-2-(3-methoxybenzamido)-β-D-glucopyranose (1)]
